# From patent US20260248879A1, “METHODS OF USING A GCG/GLP1 CO-AGONIST FOR THERAPY” (ELI LILLY AND COMPANY, priority 2022, published 2026)
# Test system: patients with T2DM
# Assay: Example 1 study: appetite analysis (VAS)
# Type: in vivo, human
# Text: To explore the effects of Compound 1 on meal intake and appetite sensation, subjects are asked to rate their appetite sensations using a 100-mm visual analogue scale
# (VAS) for parameters of hunger, fullness, satiety, and prospective food consumption in the fasted state while inpatient as well as on scheduled outpatient visits. The VAS is a validated tool to assess appetite sensation parameters (Flint et al., Int J Obes Relat Metab Disord., 2000; 24(1):38-48). The VAS is presented as a 10-cm (100-mm) line, anchored by verbal descriptors, usually “extremely” and “not at all.” Subjects are required to rate their subjective sensations on four 100-mm scales combined with questions similar to the following: • “How hungry do you feel?” • “How satisfied do you feel?” • “How full do you feel?” • “How much do you think you could eat?”
# Overall appetite score is calculated as the average of the 4 individual scores: satiety plus fullness plus (100−prospective food consumption) plus (100−hunger)/4 (van Can et al., Int J Obes (Lond). 2014; 38(6):784-793). The higher overall appetite score indicates less appetite, and the lower score indicates more appetite.
# In respect of […], the satiety VAS (after fasting) is completed at baseline and Days 1, 29, 57, 78 and 80.
# In respect of […], the satiety VAS (after fasting) is completed at baseline and Days 1, 22, 43, 64, 85, 106 and 108.
# When the satiety VAS assessment coincides with the MMTT, it is performed pre-meal and 1 hour and 4 hours post MMTT.
# [1] = both treatment groups, over dosing periods
structure (smiles),measurement,setting,value
CC(C)C[C@H](NC(=O)[C@H](CC(C)C)NC(=O)[C@H](Cc1c[nH]c2ccccc12)NC(=O)[C@H](CCC(=O)O)NC(=O)[C@@H](NC(=O)[C@H](Cc1ccccc1)NC(=O)[C@H](CCC(=O)O)NC(=O)[C@H](CCCCNC(=O)COCCOCCNC(=O)COCCOCCNC(=O)CC[C@H](NC(=O)CCCCCCCCCCCCCCCCCCC(=O)O)C(=O)O)NC(=O)[C@H](C)NC(=O)[C@H](CCCCN)NC(=O)[C@H](CCCCN)NC(=O)[C@H](CCC(=O)O)NC(=O)[C@H](CC(=O)O)NC(=O)[C@H](CC(C)C)NC(=O)[C@H](Cc1ccc(O)cc1)NC(=O)[C@H](CCCCN)NC(=O)[C@H](CO)NC(=O)[C@H](Cc1ccc(O)cc1)NC(=O)[C@H](CC(=O)O)NC(=O)[C@H](CO)NC(=O)[C@@H](NC(=O)[C@H](Cc1ccccc1)NC(=O)[C@@H](NC(=O)CNC(=O)[C@H](CCC(N)=O)NC(=O)C(C)(C)NC(=O)[C@@H](N)Cc1c[nH]cn1)[C@@H](C)O)[C@@H](C)O)C(C)C)C(=O)N[C@@H](CCC(=O)O)C(=O)NCC(=O)NCC(=O)N1CCC[C@H]1C(=O)N[C@@H](CO)C(=O)N[C@@H](CO)C(=O)NCC(N)=O [Compound 1],overall appetite scores,"all treatment groups incl. placebo, 12-week or 16-week dosing, higher score = less appetite",generally increase from baseline
same,hunger scores,"both treatment groups, majority of time points",decrease from baseline
same,fullness scores,[1],increased from baseline
same,satiety scores,[1],decrease from baseline
same,VAS appetite assessments,higher dose cohort (FIG. 8),"reduced hunger, increased satiety, decreased overall appetite"
